Source: patent US20250026773A1, “MONO-P-TOLUENESULFONATE OF AXL KINASE INHIBITOR AND CRYSTAL FORM THEREOF” (NANJING CHIA TAI TIANQING PHARMACEUTICAL CO., LTD., priority 2021, published 2025)
Values belong to the molecule of their own block, whether it stands above or below them.

Experiments:
[1] = Pharmacokinetic study in ICR mice; format: in vivo; conditions: male, mouse, po, 10 mg·kg^-1 by gavage, plasma
Procedure: Each compound was prepared into a 10 mg/mL stock solution with DMSO.
Mixed solvent preparation: Tween 80:PEG 400:Water=1:9:90 (v/v/v).
Accurately aspirated 450 μL of DMSO stock solution of the compounds at a concentration of 10 mg/mL to a glass vial, respectively, added an appropriate volume of DMSO and mixed solvent, the ratio of solvent in the final preparation is DMSO:mixed solvent (v/v)=10:90, vortexed (or sonicated), dispersed homogeneously, to obtain the concentration of 1 mg/mL of 4.5 mL of the administered test solution respectively.
Male 6-10 weeks old ICR mice (mouse source: Viton Lever Laboratory Animal Technology Co., Ltd.) were taken, 6 mice in each group, and the mice were fasted overnight and fed 4 hours after drug administration. On the day of the experiment, mice were given 10 mg·kg^−1 of compound test solution by gavage respectively. After the administration of the drug, mice were blood sampled at 0, 5 min, 15 min, 30 min, 1 h, 2 h, 4 h, 8 h, and 24 h from the orbital region of about […], which was placed in EDTA-K2 anticoagulant tubes. […] Plasma concentration was determined by LC-MS/MS method.
Pharmacokinetic parameters were calculated using the non-compartment model in Pharsight Phoenix 7.0, and the results are detailed in the following table.

[2] = Solubility in water and various pH media; format: physicochemical; conditions: thermodynamic from solid
[3] = Physicochemical stability study of crystal forms (XRPD and HPLC)
Source text: Use XRPD and HPLC to detect the physical and chemical stability of the samples.

[4] = After placement, 40° C./75% RH, 5 days
[5] = After placement, 40° C./75% RH, 10 days
[6] = After placement, 40° C./75% RH, 30 days
[7] = After placement, 60° C., 5 days
[8] = After placement, 60° C., 10 days
[9] = After placement, 60° C., 30 days
[10] = After placement, 75% RH, 5 days
[11] = After placement, 75% RH, 10 days
[12] = After placement, 75% RH, 30 days
[13] = After placement, 92.5% RH, 5 days
[14] = After placement, 92.5% RH, 10 days
[15] = After placement, Light, 10 days

half-life [1]: 1.35 h
SMILES: COCc1ccc(Nc2nc(Nc3ccc4c(c3)CC[C@@H](N3CCCC3)CC4)ncc2Cl)c(P(C)(C)=O)c1 [Example 1, (S)-(2-((5-chloro-2-((7-(pyrrolidin-1-yl)-6,7,8,9-tetrahydro-5H-benzo[7]annulen-2-yl)amino)pyrimidin-4-yl)amino)-5-(methoxymethyl)phenyl)dimethylphosphine oxide]

half-life [1]: 1.2 h
SMILES: CN1CCN(Cc2ccc(Nc3ncc(Cl)c(Nc4ccccc4S(=O)(=O)N(C)C)n3)cc2)CC1 [Positive drug 2 (TP0903), reference compound]

solubility ([2]; potassium dihydrogen phosphate/sodium hydroxide buffer, aqueous buffer, pH 6.0, potassium dihydrogen phosphate/sodium hydroxide): 1900 µg/mL
solubility ([2]; potassium dihydrogen phosphate/sodium hydroxide buffer, aqueous buffer, pH 6.8, potassium dihydrogen phosphate/sodium hydroxide): 2100 µg/mL
solubility ([2]; potassium dihydrogen phosphate/sodium hydroxide buffer, aqueous buffer, pH 7.4, potassium dihydrogen phosphate/sodium hydroxide): 2100 µg/mL
solubility ([2]; simulated gastric fluid, pH 1.0, dilute hydrochloric acid with water): 87200 µg/mL
solubility ([2]; simulated gastric fluid, pH 2.0, dilute hydrochloric acid with water): 4700 µg/mL
solubility ([2]; sodium acetate trihydrate/glacial acetic acid buffer, aqueous buffer, pH 4.5, sodium acetate trihydrate/glacial acetic acid): 2000 µg/mL
solubility ([2]; water): 1400 µg/mL
Crystal form [3, 4]: Crystal form B
Maximum single impurity [3, 4]: Maximum single impurity: 0.04 A %
Purity [3, 4]: Purity: 99.81 A %
Crystal form [3, 5]: Crystal form B
Maximum single impurity [3, 5]: Maximum single impurity: 0.04 A %
Purity [3, 5]: Purity: 99.82 A %
Crystal form [3, 6]: Crystal form B
Maximum single impurity [3, 6]: Maximum single impurity: 0.04 A %
Purity [3, 6]: Purity: 99.81 A %
Crystal form [3, 7]: Crystal form B
Maximum single impurity [3, 7]: Maximum single impurity: 0.04 A %
Purity [3, 7]: Purity: 99.81 A %
Crystal form [3, 8]: Crystal form B
Maximum single impurity [3, 8]: Maximum single impurity: 0.04 A %
Purity [3, 8]: Purity: 99.82 A %
Crystal form [3, 9]: Crystal form B
Maximum single impurity [3, 9]: Maximum single impurity: 0.04 A %
Purity [3, 9]: Purity: 99.80 A %
Crystal form [3, 10]: Crystal form B
Maximum single impurity [3, 10]: Maximum single impurity: 0.04 A %
Purity [3, 10]: Purity: 99.81 A %
Crystal form [3, 11]: Crystal form B
Maximum single impurity [3, 11]: Maximum single impurity: 0.04 A %
Purity [3, 11]: Purity: 99.82 A %
Crystal form [3, 12]: Crystal form B
Maximum single impurity [3, 12]: Maximum single impurity: 0.04 A %
Purity [3, 12]: Purity: 99.80 A %
Crystal form [3, 13]: Crystal form B
Maximum single impurity [3, 13]: Maximum single impurity: 0.04 A %
Purity [3, 13]: Purity: 99.81 A %
Crystal form [3, 14]: Crystal form B
Maximum single impurity [3, 14]: Maximum single impurity: 0.04 A %
Purity [3, 14]: Purity: 99.82 A %
Crystal form ([3]; After placement, Light, 5 days): Crystal form B
Maximum single impurity ([3]; After placement, Light, 5 days): Maximum single impurity: 0.05 A %
Purity ([3]; After placement, Light, 5 days): Purity: 99.67 A %
Crystal form [3, 15]: Crystal form B
Maximum single impurity [3, 15]: Maximum single impurity: 0.10 A %
Purity [3, 15]: Purity: 99.60 A %
Crystal form ([3]; Before placement): Crystal form B
Maximum single impurity ([3]; Before placement): impurity: 0.04 A %
Purity ([3]; Before placement): Purity: 99.81 A %
SMILES: COCc1ccc(Nc2nc(Nc3ccc4c(c3)CC[C@@H](N3CCCC3)CC4)ncc2Cl)c(P(C)(C)=O)c1.Cc1ccc(S(=O)(=O)O)cc1 [crystal form B, mono-p-toluenesulfonate monohydrate of (S)-(2-((5-chloro-2-((7-(pyrrolidin-1-yl)-6,7,8,9-tetrahydro-5H-benzo[7]annulen-2-yl)amino)pyrimidin-4-yl)amino)-5-(methoxymethyl)phenyl)dimethylphosphine oxide]

Crystal form [3, 7]: Crystal form A
Maximum single impurity [3, 7]: impurity: 0.75 A %
Purity [3, 7]: Purity: 96.39 A %
Crystal form [3, 8]: Crystal form A
Maximum single impurity [3, 8]: impurity: 1.21 A %
Purity [3, 8]: Purity: 94.49 A %
Maximum single impurity [3, 9]: impurity: 2.02 A %
Purity [3, 9]: Purity: 89.65 A %
Crystal form ([3]; Before placement): Crystal form A
Maximum single impurity ([3]; Before placement): impurity: 0.05 A %
Purity ([3]; Before placement): Purity: 99.33 A %
SMILES: COCc1ccc(Nc2nc(Nc3ccc4c(c3)CC[C@@H](N3CCCC3)CC4)ncc2Cl)c(P(C)(C)=O)c1 [free base crystal form A, (S)-(2-((5-chloro-2-((7-(pyrrolidin-1-yl)-6,7,8,9-tetrahydro-5H-benzo[7]annulen-2-yl)amino)pyrimidin-4-yl)amino)-5-(methoxymethyl)phenyl)dimethylphosphine oxide]
